Data set [1] addresses T1, creatine kinase (CK) in human serum (Homo sapiens, UniProt P06732).
T1 construct: Five fresh human serum samples were used; from tissue; host or cells: fresh human serum
In words: Inhibitory effect of oxidized products of SH compounds on CK activity (HK/G6PDH UV method, NAC 26 mM as reactivator). The format is biochemical. The settings on record: for inhibition of CK activity by oxidized product / activity at 5000 µM: 5 mM oxidized product; for CK activity value / CK activity value, Average: 5 mM SH compound oxidized product; for CK activity value: NAC 26 mM, 37° C.; for CK activity value, Average: average of 5 samples; for activity at 5000 µM: average with enzyme solution containing no SH compound oxidized product = 100%, read-out: CK activity, relative value. On the procedure: Investigation on the inhibitory effect of oxidized products of SH compounds on CK activity
Thus, oxidized products of the SH compounds, respectively, were obtained.
NAC (26 mM) as CK reactivator, each 5 mM of SH compound oxidized product obtained above, 2.6 mM of ADP, 3.9 u/ml of HK (available from Oriental Yeast Co., Ltd.), 8.0 u/ml of G6PDH (available from Oriental Yeast Co., Ltd.), 2.6 mM of NADP, 21 mM of glucose, 10 mM of magnesium acetate, 6.5 mM of AMP, 0.013 mM of APSA, 0.1% (w/v) of sodium azide and 2 mM of EDTA-2Na were dissolved in 128 mM imidazole-acetate buffer (pH 6.7). The thus obtained solutions were adjusted to pH 6.7 with sodium hydroxide to obtain enzyme solutions.
An enzyme solution containing no SH compound oxidized product was prepared as a control standard solution.
(§1) Five fresh human serum samples were used.
(§2) To 8 μl of each sample was added 320 μl of each enzyme solution, followed by preincubation for 5 minutes. Then, 80 μl of the substrate solution was added to initiate the reaction and the change of absorbance per minute was measured for 3 minutes from 2 minutes after the addition of the substrate solution. The CK activity value was calculated from the molecular extinction coefficient of the NADPH produced.
(§3) As a measuring apparatus, an Autoanalyzer Hitachi Model 7150 was used, and the measurement was carried out at 37° C. by use of dual wavelength (λ1 =405 nm, λ2 =340 nm).
Tables 2 and 3 show the CK activity values of the 5 samples in each case and the average thereof.

Data set [2] deals with creatine kinase (CK) in human serum. In words: CK activity measured with enzyme solutions containing SH compounds as CK reactivator, fresh and after 1 month of storage (Example 1 / Comparative Example 1). The format is biochemical. The following applies: for CK activity, relative value: NAC just after preparation = 100%. On the procedure: The resulting solution was adjusted to pH 6.7 with sodium hydroxide and stored at a predetermined temperature for a predetermined period. The thus obtained solution were used as enzyme solutions.
as §1, §2, §3
Enzyme solutions were prepared in the same manner as in Example 1 by use of the same reagents as in Example 1 except for using a predetermined concentration(s) of one or two SH compounds properly selected from the above-mentioned CK reactivators, in place of the CK reactivator(s) used in Example 1.
CK activity was measured in the same manner as in Example 1.

[3] abbreviates: Sample 1, enzyme solution just after preparation, TG 100 mM, 2ME 26 mM, 2MES 26 mM, NAC 26 mM.
Where [4] appears, read: Sample 2, enzyme solution just after preparation, TG 100 mM, 2ME 26 mM, 2MES 26 mM, NAC 26 mM.
Where [5] appears, read: Sample 2, enzyme solution stored at 10° C. for 1 month, TG 100, 2ME 26, 2MES 26, NAC 26, L-cysteine 6.5, GSH 12, TDG 5, DTT 6.5 mM.
Where [6] appears, read: Sample 2, enzyme solution stored at 20° C. for 1 month, TG 100, 2ME 26, 2MES 26, NAC 26, L-cysteine 6.5, GSH 12, TDG 5, DTT 6.5 mM.
The mark [7] stands for this setting: Sample 3, enzyme solution just after preparation, TG 100 mM, 2ME 26 mM, 2MES 26 mM, NAC 26 mM.
[8] abbreviates: Sample 3, enzyme solution stored at 10° C. for 1 month, TG 100, 2ME 26, 2MES 26, NAC 26, L-cysteine 6.5, GSH 12, TDG 5, DTT 6.5 mM.
[9] abbreviates: Sample 3, enzyme solution stored at 20° C. for 1 month, TG 100, 2ME 26, 2MES 26, NAC 26, L-cysteine 6.5, GSH 12, TDG 5, DTT 6.5 mM.
[10] abbreviates: Sample 4, enzyme solution just after preparation, TG 100 mM, 2ME 26 mM, 2MES 26 mM, NAC 26 mM.
Where [11] appears, read: Sample 4, enzyme solution stored at 10° C. for 1 month, TG 100, 2ME 26, 2MES 26, NAC 26, L-cysteine 6.5, GSH 12, TDG 5, DTT 6.5 mM.
The mark [12] stands for this setting: Sample 4, enzyme solution stored at 20° C. for 1 month, TG 100, 2ME 26, 2MES 26, NAC 26, L-cysteine 6.5, GSH 12, TDG 5, DTT 6.5 mM.
The mark [13] stands for this setting: Sample 5, enzyme solution just after preparation, TG 100 mM, 2ME 26 mM, 2MES 26 mM, NAC 26 mM.
Setting [14] is: Sample 5, enzyme solution stored at 10° C. for 1 month, TG 100, 2ME 26, 2MES 26, NAC 26, L-cysteine 6.5, GSH 12, TDG 5, DTT 6.5 mM.
[15] abbreviates: Sample 5, enzyme solution stored at 20° C. for 1 month, TG 100, 2ME 26, 2MES 26, NAC 26, L-cysteine 6.5, GSH 12, TDG 5, DTT 6.5 mM.
Where [16] appears, read: average of 5 samples, enzyme solution just after preparation, TG 100 mM, 2ME 26 mM, 2MES 26 mM, NAC 26 mM.
[17] abbreviates: average of 5 samples, enzyme solution stored at 10° C. for 1 month, TG 100, 2ME 26, 2MES 26, NAC 26, L-cysteine 6.5, GSH 12, TDG 5, DTT 6.5 mM.
Setting [18] is: average of 5 samples, enzyme solution stored at 20° C. for 1 month, TG 100, 2ME 26, 2MES 26, NAC 26, L-cysteine 6.5, GSH 12, TDG 5, DTT 6.5 mM.
Setting [19] is: enzyme solution just after preparation.
The mark [20] stands for this setting: enzyme solution stored at 10° C. for 1 month.
The mark [21] stands for this setting: enzyme solution stored at 20° C. for 1 month.
Where [22] appears, read: Sample 1, enzyme solution stored at 20° C. for 1 month, TG 100, 2ME 26, 2MES 26, NAC 26, L-cysteine 6.5, GSH 12, TDG 5, DTT 6.5 mM.
Where [23] appears, read: Sample 1, enzyme solution stored at 10° C. for 1 month, TG 100, 2ME 26, 2MES 26, NAC 26, L-cysteine 6.5, GSH 12, TDG 5, DTT 6.5 mM.

The structures appear in SMILES notation. Several values for one entry are separate records, joined by “and”; a condition that tells them apart may be missing. Equal entries are not always repeated. Where two headings read alike, the source gives them in different places.

T1 sequence (P06732 whole entry): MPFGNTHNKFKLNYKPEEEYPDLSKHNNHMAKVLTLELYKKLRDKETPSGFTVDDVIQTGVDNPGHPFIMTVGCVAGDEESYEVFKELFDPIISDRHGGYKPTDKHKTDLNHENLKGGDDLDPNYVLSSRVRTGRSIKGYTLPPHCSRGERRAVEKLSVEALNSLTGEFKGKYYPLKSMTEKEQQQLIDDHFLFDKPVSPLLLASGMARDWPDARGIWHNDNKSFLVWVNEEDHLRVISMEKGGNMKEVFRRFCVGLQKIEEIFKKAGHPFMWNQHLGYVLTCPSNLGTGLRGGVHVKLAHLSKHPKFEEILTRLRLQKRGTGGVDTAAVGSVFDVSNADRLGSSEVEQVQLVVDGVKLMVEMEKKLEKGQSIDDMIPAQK

Take `O[C@@H]1CSSC[C@H]1O` (relative stereo) [DTT oxidized product]: in data set [1], the “inhibition of CK activity by oxidized product” value is “hardly inhibited CK activity”. The CK activity value is recorded as 150 IU/l in data set [1] (Sample 1 (fresh human serum)); 407 IU/l in data set [1] (Sample 2); 108 IU/l in data set [1] (Sample 3); 319 IU/l in data set [1] (Sample 4); 99 IU/l in data set [1] (Sample 5). Also, the “CK activity value, Average” value in data set [1] was found to be 216 IU/l. Further, the activity at 5000 µM in data set [1] came out at 95.9%.
With `O=c1ccnc(SSc2nccc(=O)[nH]2)[nH]1` [2-Thiouracil oxidized product], in data set [1], the “inhibition of CK activity by oxidized product” value was “hardly inhibited CK activity”. For the same compound, the CK activity value in data set [1] (Sample 1 (fresh human serum)) was determined as 143 IU/l; in data set [1] (Sample 2) it was 407 IU/l; in data set [1] (Sample 3) it was 106 IU/l; in data set [1] (Sample 4), 314 IU/l; in data set [1] (Sample 5), 97 IU/l. In addition, in data set [1], the “CK activity value, Average” value is listed as 213 IU/l. Further, the activity at 5000 µM in data set [1] stood at 94.6%.
In the case of `OCCS` [2ME, 2-mercaptoethanol], the “retaining CK-reactivating ability for a long period of time in an aqueous solution” value (shortened to “retaining CK-reactivating ability”) in data set [2] is given as “capable of retaining CK-reactivating ability for a long period of time”. The CK activity value in data set [2] (setting [3]) is given as 186 IU/l; in data set [2] (setting [4]) it was 554 IU/l; in data set [2] (setting [5]), 559 IU/l; in data set [2] (setting [6]), 559 IU/l; in data set [2] (setting [7]) it was 151 IU/l; in data set [2] (setting [8]), 155 IU/l. Also, the CK activity value in data set [2] (setting [9]) is 155 IU/l; in data set [2] (setting [10]) it was 58 IU/l; in data set [2] (setting [11]) it was 59 IU/l; in data set [2] (setting [12]), 58 IU/l; in data set [2] (setting [13]), 89 IU/l; in data set [2] (setting [14]) it was 89 IU/l. The CK activity value in data set [2] (setting [15]) turned out to be 89 IU/l. For the same compound, the “CK activity value, Average” value is 208 IU/l in data set [2] (setting [16]), 210 IU/l in data set [2] (setting [17]) and 209 IU/l in data set [2] (setting [18]). In addition, the results for the “CK activity, relative value” in data set [2] (setting [19]), in data set [2] (setting [20]) and in data set [2] (setting [21]) were 101.9%, 102.8% and 102.4%, respectively.
As for `O=S(=O)(O)CCS` [2MES, 2-mercaptoethanesulfonic acid], the CK activity value in data set [2] is 184 IU/l; in data set [2] (setting [3]), 184 IU/l; in data set [2] (setting [22]), 181 IU/l; in data set [2] (setting [4]) it was 553 IU/l; in data set [2] (setting [5]), 548 IU/l; in data set [2] (setting [6]), 542 IU/l. Besides, the CK activity value in data set [2] (setting [7]) stood at 151 IU/l; in data set [2] (setting [8]), 147 IU/l; in data set [2] (setting [9]), 148 IU/l; in data set [2] (setting [10]), 58 IU/l; in data set [2] (setting [11]), 55 IU/l; in data set [2] (setting [12]), 55 IU/l. Besides, the CK activity value is given as 88 IU/l in data set [2] (setting [13]), 85 IU/l in data set [2] (setting [14]) and 87 IU/l in data set [2] (setting [15]). Further, in data set [2], the “retaining CK-reactivating ability” value is on record as “capable of retaining CK-reactivating ability for a long period of time”. Also, the “CK activity value, Average” value in data set [2] (setting [16]) is 207 IU/l; in data set [2] (setting [17]), 204 IU/l; in data set [2] (setting [18]) it was 203 IU/l. The “CK activity, relative value” worked out at 101.4% in data set [2] (setting [19]), 99.9% in data set [2] (setting [20]) and 96.3% in data set [2] (setting [21]).
`N[C@@H](CCC(=O)N[C@@H](CS)C(=O)NCC(=O)O)C(=O)O` [GSH, reduced-form glutathione]: the “CK activity value, Average” value in data set [2] was 192 IU/l and 167 IU/l. Further, the figures for the “CK activity, relative value” in data set [2] (setting [20]) and in data set [2] (setting [21]) were 94.1% and 81.9%, respectively.
With `N[C@@H](CS)C(=O)O` [L-cysteine], the CK activity value in data set [2] (setting [23]) was found to be 140 IU/l; in data set [2] (setting [22]), 52 IU/l; in data set [2] (setting [5]), 437 IU/l; in data set [2] (setting [6]), 175 IU/l; in data set [2] (setting [8]) it was 110 IU/l; in data set [2] (setting [9]) it was 33 IU/l. Besides, the CK activity value was found to be 42 IU/l in data set [2] (setting [11]), 12 IU/l in data set [2] (setting [12]), 63 IU/l in data set [2] (setting [14]) and 19 IU/l in data set [2] (setting [15]). Besides, the “CK activity value, Average” value in data set [2] (setting [17]) is 158 IU/l; in data set [2] (setting [18]), 58 IU/l. The results for the “CK activity, relative value” in data set [2] (setting [20]) and in data set [2] (setting [21]) were 77.5% and 28.4%, respectively.
Regarding `O.O.OC[C@H]1O[C@@H](S)[C@H](O)[C@@H](O)[C@@H]1O.[Na].[Na]` [TDG, 1-thio-β-D-glucose disodium salt dihydrate], the “retaining CK-reactivating ability” value in data set [2] is “incapable of retaining CK-reactivating ability in a solution for a long period of time”. In addition, the CK activity value came out at 0 IU/l in data set [2] (setting [23]); 0 IU/l in data set [2] (setting [22]); 3 IU/l in data set [2] (setting [5]); 4 IU/l in data set [2] (setting [6]); 1 IU/l in data set [2] (setting [8]); 2 IU/l in data set [2] (setting [9]). The CK activity value in data set [2] (setting [11]), in data set [2] (setting [12]), in data set [2] (setting [14]) and in data set [2] (setting [15]) was 0 IU/l in each case. In addition, the “CK activity value, Average” value in data set [2] (setting [17]) and in data set [2] (setting [18]) was 1 IU/l each time. For the same compound, the figures for the “CK activity, relative value” in data set [2] (setting [20]) and in data set [2] (setting [21]) were 0.4% and 0.6%, respectively.

The values above are taken from patent publication US5716797A, “Stable two-part reagent for the measurement of creatine kinase activity” (Wako Pure Chemical Industries, Ltd., priority 1995, dated 1998).
